Assay results: ChEMBL document CHEMBL1142231, “Proline-rich tyrosine kinase 2 regulates osteoprogenitor cells and bone formation, and offers an anabolic treatment approach for osteoporosis” (Proc Natl Acad Sci U S A, 2007)
The source made the active and inactive calls. No cut-off for these calls is given here.

How the values were obtained:
Rattus norvegicus [1] = test: Effect on bone metabolism in po dosed ovariectomized Sprague-Dawley rat assessed as bone formation rate of proximal tibia cancellous bone; type: functional
Rattus norvegicus [2] = test: Prevention of bone loss in po dosed ovariectomized Sprague-Dawley rat assessed as osteoclast surface of proximal tibia cancellous bone; type: functional
Rattus norvegicus [3] = test: Effect on bone turnover in po dosed ovariectomized Sprague-Dawley rat assessed as mineralizing surface of proximal tibia cancellous bone; type: functional
Rattus norvegicus [4] = test: Prevention of bone loss in ovariectomized Sprague-Dawley rat assessed as osteoclast surface of proximal tibia cancellous bone at 10 mg/kg, po administered daily for 28 days; type: functional
Rattus norvegicus [5] = test: Increase in bone formation in ovariectomized Sprague-Dawley rat assessed as mineralizing surface of proximal tibia cancellous bone at 30 mg/kg, po administered daily for 28 days; type: functional
Rattus norvegicus [6] = test: Increase in bone formation in ovariectomized Sprague-Dawley rat assessed as mineralizing surface of proximal tibia cancellous bone at 10 mg/kg, po administered daily for 28 days; type: functional
Rattus norvegicus [7] = test: Prevention of bone loss in ovariectomized Sprague-Dawley rat assessed as osteoclast surface of proximal tibia cancellous bone at 30 mg/kg, po administered daily for 28 days; type: functional
Rattus norvegicus [8] = test: Effect on bone resorption in ovariectomized Sprague-Dawley rat assessed as serum C-telopeptide degradation product at 30 mg/kg, po administered daily for 28 days; type: functional, organism-based; set-up: dose 30 mg/kg
Rattus norvegicus [9] = test: Effect on bone metabolism in ovariectomized Sprague-Dawley rat assessed as bone formation rate of proximal tibia cancellous bone at 10 mg/kg, po administered daily for 28 days; type: functional
Rattus norvegicus [10] = test: Increase in bone formation in ovariectomized Sprague-Dawley rat assessed as mineral apposition rate of proximal tibia cancellous bone at 30 mg/kg, po administered daily for 28 days; type: functional
Rattus norvegicus [11] = test: Increase in bone formation in ovariectomized Sprague-Dawley rat assessed as mineral apposition rate of proximal tibia cancellous bone at 10 mg/kg, po administered daily for 28 days; type: functional
Rattus norvegicus [12] = test: Effect on bone metabolism in ovariectomized Sprague-Dawley rat assessed as bone formation rate of proximal tibia cancellous bone at 30 mg/kg, po administered daily for 28 days; type: functional
Mesenchymal stem cell = test: Increase in alkaline phosphatase activity in human mesenchymal stem cells; type: functional, cell-based
Rattus norvegicus [13] = test: Effect on bone resorption in ovariectomized Sprague-Dawley rat assessed as serum C-telopeptide degradation product at 10 mg/kg, po administered daily for 28 days; type: functional, organism-based; set-up: dose 10 mg/kg

C#CC1(O)CC[C@H]2[C@@H]3CCc4cc(O)ccc4[C@H]3CC[C@@]21C (single isomer, unassigned) [ETHINYL ESTRADIOL]
Activity (Rattus norvegicus [1]): 77.91 microm2/micrometer/d | Activity (Rattus norvegicus [2]): 4.55% | Activity (Rattus norvegicus [3]): 20.22%

CN(c1ccccc1CNc1nc(Nc2ccc3c(c2)CC(=O)N3)ncc1C(F)(F)F)S(C)(=O)=O.Cl
Activity (Rattus norvegicus [4]): 7.83% | Activity (Rattus norvegicus [5]): 40.6% | Activity (Rattus norvegicus [6]): 36.81% | Activity (Rattus norvegicus [7]): 6.13% | Activity (Rattus norvegicus [8]): inactive | Activity (Rattus norvegicus [9]): 240.17 microm2/micrometer/d | Activity (Rattus norvegicus [10]): 1.96 micrometer/day | Activity (Rattus norvegicus [11]): 1.77 micrometer/day | Activity (Rattus norvegicus [12]): 291.43 microm2/micrometer/d | Activity (Mesenchymal stem cell): Active | Activity (Rattus norvegicus [13]): inactive
